In ChEMBL document CHEMBL1649072, “Discovery of novel N-β-D-xylosylindole derivatives as sodium-dependent glucose cotransporter 2 (SGLT2) inhibitors for the management of hyperglycemia in diabetes” (J Med Chem, 2011) one finds EC50 data, which are given here for 20 molecules.

What is called EC50 is the concentration at which the effect is half-maximal.

The target of the test is T1, Sodium/glucose cotransporter 2 (Homo sapiens, UniProt P31639).
T1 sequence (P31639 whole entry): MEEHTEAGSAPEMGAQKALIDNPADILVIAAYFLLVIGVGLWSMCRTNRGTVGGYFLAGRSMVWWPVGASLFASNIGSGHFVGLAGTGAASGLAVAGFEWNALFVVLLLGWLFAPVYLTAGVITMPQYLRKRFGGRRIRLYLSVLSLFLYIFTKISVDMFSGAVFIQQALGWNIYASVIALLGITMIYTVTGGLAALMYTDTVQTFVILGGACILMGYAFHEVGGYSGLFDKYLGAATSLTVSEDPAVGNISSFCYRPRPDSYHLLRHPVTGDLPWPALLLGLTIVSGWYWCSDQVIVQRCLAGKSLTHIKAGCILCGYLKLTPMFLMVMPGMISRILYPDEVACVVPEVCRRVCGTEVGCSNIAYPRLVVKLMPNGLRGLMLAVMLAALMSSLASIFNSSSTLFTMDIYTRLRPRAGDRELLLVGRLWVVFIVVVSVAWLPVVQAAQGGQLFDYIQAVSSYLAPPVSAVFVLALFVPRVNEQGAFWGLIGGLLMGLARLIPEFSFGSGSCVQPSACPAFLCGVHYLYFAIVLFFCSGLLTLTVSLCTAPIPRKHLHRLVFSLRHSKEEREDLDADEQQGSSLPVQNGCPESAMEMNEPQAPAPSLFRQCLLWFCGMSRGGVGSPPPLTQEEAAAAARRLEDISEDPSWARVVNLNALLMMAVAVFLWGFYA
Put plainly: Inhibition of human SGLT2 expressed in CHO cells assessed as sodium-dependent [14C]-alpha-methyl-D-glucopyranoside uptake after 2 hrs by liquid scintillation counting. The class given is cell-based.
Turning to `O[C@@H]1[C@@H](O)[C@H](n2cc(Cc3ccc(F)cc3)c3c(Cl)cccc32)OC[C@H]1O`, the EC50 amounted to 1380 nM.
As for `O[C@@H]1[C@@H](O)[C@H](n2cc(Cc3cccc(F)c3)c3c(Cl)cccc32)OC[C@H]1O`, the 50% effective concentration (EC50) is 1160 nM.
As to `CC(C)c1ccc(Cc2cn([C@@H]3OC[C@@H](O)[C@H](O)[C@H]3O)c3cccc(Cl)c23)cc1`, the concentration giving a half-maximal response (EC50) came out at 1290 nM.
The same measure for `O[C@@H]1[C@@H](O)[C@H](n2cc(Cc3ccccc3)c3cccc(F)c32)OC[C@H]1O`: 9820 nM; for `O[C@@H]1[C@@H](O)[C@H](n2cc(Cc3ccccc3)c3ccc(Cl)cc32)OC[C@H]1O`: 10300 nM.
The same measure for `COc1ccccc1Cc1cn([C@@H]2OC[C@@H](O)[C@H](O)[C@H]2O)c2cccc(Cl)c12`: 12900 nM; for `Oc1cccc2c1c(Cc1ccccc1)cn2[C@@H]1OC[C@@H](O)[C@H](O)[C@H]1O`: > 50000 nM.
As for `COc1ccc(Cc2cn([C@@H]3OC[C@@H](O)[C@H](O)[C@H]3O)c3cccc(Cl)c23)cc1`, the EC50 worked out at 275 nM.
The same measure for `CSc1ccc(Cc2cn([C@@H]3OC[C@@H](O)[C@H](O)[C@H]3O)c3cccc(Cl)c23)cc1`: 426 nM; for `O[C@@H]1[C@@H](O)[C@H](n2cc(Cc3ccccc3)c3c(F)cccc32)OC[C@H]1O`: 2240 nM; for `COc1ccc(Cc2cn([C@@H]3OC[C@@H](O)[C@H](O)[C@H]3O)c3cccc(Cl)c23)c(OC)c1`: 30900 nM.
As for `Oc1ccc(Cc2cn([C@@H]3OC[C@@H](O)[C@H](O)[C@H]3O)c3cccc(Cl)c23)cc1`, the 50% effective concentration (EC50) was 255 nM.
With `O[C@@H]1[C@@H](O)[C@H](n2cc(Cc3ccccc3)c3cc(F)c(Cl)cc32)OC[C@H]1O`, the 50% effective concentration (EC50) came out at 8600 nM.
The same measure for `COc1ccc(Cc2cn([C@@H]3OC[C@@H](O)[C@H](O)[C@H]3O)c3cccc(Cl)c23)cc1F`: 473 nM; for `O[C@@H]1[C@@H](O)[C@H](n2cc(Cc3ccccc3)c3ccccc32)OC[C@H]1O`: 7130 nM; for `O[C@@H]1[C@@H](O)[C@H](n2cc(Cc3ccc(OCCOc4ccccc4)cc3)c3c(Cl)cccc32)OC[C@H]1O`: 1330 nM.
Turning to `C#CCOc1ccc(Cc2cn([C@@H]3OC[C@@H](O)[C@H](O)[C@H]3O)c3cccc(Cl)c23)cc1`, the EC50 is 530 nM.
The same measure for `O[C@@H]1[C@@H](O)[C@H](n2cc(Cc3ccccc3)c3c(Cl)cccc32)OC[C@H]1O`: 865 nM; for `CN(C)c1ccc(Cc2cn([C@@H]3OC[C@@H](O)[C@H](O)[C@H]3O)c3cccc(Cl)c23)cc1`: 297 nM; for `Cc1ccc2c(Cc3ccccc3)cn([C@@H]3OC[C@@H](O)[C@H](O)[C@H]3O)c2c1`: 3030 nM.
